One assay concerns TNFα. In words: IRAK4 Monocyte TNFα Cell Based Assay. Conditions: Monocyte; cryopreserved human monocytes, 50 pg/ml LPS, compound 1 hour pre-treatment, 4 hours stimulation, TNFα by TR-FRET. The method, then: IRAK4 Monocyte TNFα Cell Based Assay Procedure:
The cell suspension was then plated at a density of 5,000 cells/well onto black 384 well Greiner clear bottom plates. Plates were pre-spotted with test compounds and serially diluted in DMSO where 40 nL/well were delivered using the Echo 550 acoustic liquid dispenser (Labcyte®) for a final DMSO concentration of 0.1%. Plated cells were treated with compound for 1 hour at 37° C. Cells were then stimulated with 50 pg/ml of LPS (Sigma) excluding outside columns of plate used for unstimulated cell control wells. Cells were incubated for an additional 4 hours at 37° C. Cells were then spun out of the media and 5 μl of sample were taken and analyzed for total TNFα content using the TR-FRET Human TNFα detection system (CisBio). This system utilizes two labeled antibodies (cryptate and XL665) that bind to two different epitopes of the TNFα molecule and produce FRET signal proportional to the concentration of TNFα in the sample. Detection antibodies are mixed 50:50 and 5 μL were dispensed into each well. Plates were covered with clear seals and incubated at room temp overnight. The following morning plates were read using an Envision 2103 Multilabeled reader (PerkinElmer) with excitation/emission/FRET emission at 340 nm/615 nm/665 nm, respectively. Fluorescence intensities at 615 nm and 665 nm emission wavelengths were expressed as a ratio (665 nm/615 nm). Percent of control was calculated as follows: % Control=100×(RatioSample−Ratio0% Stimulation)/(Ratio100% Stimulation−Ratio0% Stimulation)
where unstimulated cells (0% stimulation) were the negative control and stimulated cells (100% stimulation) were used as the positive control.
Background: Time-resolved FRET reads energy transfer from a long-lived donor to a nearby acceptor.

In a further assay the target is IRAK4 (Homo sapiens (Human), UniProt Q9NWZ3). The assay can be described thus: IRAK4 Biochemical Assay (TR-FRET/HTRF). The settings on record: IRAK4 enzyme 0.75 nM, 500 μM ATP, 2 μM STK1 peptide, 120 min. The method, then:
IRAK4 Biochemical Assay Procedure:
IRAK4 enzyme (Carna Biosciences, Chuo-ku, Kobe, Japan) activity was measured by detecting phosphorylated peptide substrate formation using an antibody against the phosphorylated peptide substrate. This is a time-resolved fluorescence resonance energy transfer (TR-FRET) immunoassay, based on the STK1 KinEASE Assay (Cisbio, Bedford, Mass.). The assay was designed as a simple two-step, endpoint assay (a 5 μl enzyme reaction followed by 5 μl stop and detect Solution) performed in ProxiPlate-384 Plus plates (Perkin Elmer, Waltham, Mass.). Staurosporine, a non-selective kinase inhibitor was used as a positive control. Compounds diluted in DMSO were spotted into 384 well plates using a Labcyte® Echo 550 Liquid Handling System prior to addition of IRAK4 enzyme and peptide substrate. Reaction solutions were delivered using a Multi-Flo (Bio-Tek Instruments). The enzyme and peptide solution was incubated with compound for 15 minutes at room temp before the reaction was initiated by the addition of ATP. The standard 5 μl reaction mixture contained 500 μM ATP, 2 μM peptide (STK1 Peptide), 0.75 nM of IRAK4 in reaction buffer (50 mM HEPES, pH 7.0, 0.02% NaN3, 0.01% BSA, 0.1 mM Orthovanadate, 5 mM MgCl2, 0.025% NP-40, 1 mM DTT). After 120 min of incubation at room temperature, 5 μl of Stop and Detect Solution (1:100 Cryptate labeled anti-phosphorylated peptide antibody solution and 125 nM Tracer in a 50 mM HEPES pH 7.0 detection buffer containing sufficient EDTA) was added. The plate was then further incubated for 60 minutes at room temperature and read on Envision 2103 Multilabeled reader (PerkinElmer) with excitation/emission/FRET emission at 340 nm/615 nm/665 nm, respectively. Fluorescence intensities at 615 nm and 665 nm emission wavelengths were expressed as a ratio (665 nm/615 nm). Percentage of inhibition was calculated as below: % Inhibition=100×(RatioSample−Ratio0% Inhibition)/(Ratio100% Inhibition−Ratio0% Inhibition)
The 0% inhibition value comes from control wells lacking inhibitor. The 100% inhibition value comes from control wells containing a saturating amount of known inhibitor staurosporine.

Chain of IRAK4 (Q9NWZ3 whole entry): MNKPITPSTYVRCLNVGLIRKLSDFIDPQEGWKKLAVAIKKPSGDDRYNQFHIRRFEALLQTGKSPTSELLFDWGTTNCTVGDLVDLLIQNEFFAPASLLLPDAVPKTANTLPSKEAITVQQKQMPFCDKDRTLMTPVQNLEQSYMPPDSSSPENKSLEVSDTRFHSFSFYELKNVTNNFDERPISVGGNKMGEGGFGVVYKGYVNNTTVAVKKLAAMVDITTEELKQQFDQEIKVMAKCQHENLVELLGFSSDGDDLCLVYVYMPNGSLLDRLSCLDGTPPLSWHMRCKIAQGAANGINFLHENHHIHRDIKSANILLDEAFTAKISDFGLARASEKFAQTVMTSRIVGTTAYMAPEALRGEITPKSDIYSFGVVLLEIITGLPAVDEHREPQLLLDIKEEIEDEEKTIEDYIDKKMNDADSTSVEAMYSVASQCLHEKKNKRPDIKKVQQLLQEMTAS

For orientation: EC50 means the concentration giving half of the maximal effect. In general, IC50 refers to the concentration needed to halve the response being measured. The low end stands for higher potency, the high end for lower potency. As to `CC(C)(O)[C@H](F)CNC(=O)c1cnc(-c2ccc3cc(C#N)cnn23)cc1N[C@H]1CC[C@H](c2cn[nH]c2)CC1` [Compound 1, 4-(((1r,4R)-4-(1H-pyrazol-4-yl)cyclohexyl)amino)-6-(3-cyanopyrrolo[1,2-b]pyridazin-7-yl)-N-((R)-2-fluoro-3-hydroxy-3-methylbutyl)nicotinamide], in the assay with TNFα, the concentration giving a half-maximal response (EC50) came to 4 nM. In addition, the half-maximal inhibitory concentration (IC50) at IRAK4 was below 1 nM.
On to `COCc1nnc([C@H]2CC[C@H](Nc3cc(-c4ccc5cc(C#N)cnn45)ncc3C(=O)NC[C@@H](F)C(C)(C)O)CC2)o1` [Compound 40, 6-(3-cyanopyrrolo[1,2-b]pyridazin-7-yl)-N-((R)-2-fluoro-3-hydroxy-3-methylbutyl)-4-(((1r,4R)-4-(5-(methoxymethyl)-1,3,4-oxadiazol-2-yl)cyclohexyl)amino)nicotinamide], for which the concentration giving a half-maximal response (EC50) in the assay on TNFα came to 66 nM. Also, the IC50 against IRAK4 came to 1 nM.
On to `CC(C)(O)[C@H](F)CNC(=O)c1cnc(-c2ccc3cc(C#N)cnn23)cc1N[C@H]1CC[C@H](n2cc(C(N)=O)nn2)CC1` [Compound 34, 4-(((1r,4R)-4-(4-carbamoyl-1H-1,2,3-triazol-1-yl)cyclohexyl)amino)-6-(3-cyanopyrrolo[1,2-b]pyridazin-7-yl)-N-((R)-2-fluoro-3-hydroxy-3-methylbutyl)nicotinamide], for which the half-maximal effective concentration (EC50) in the assay on TNFα was 43 nM. Further, on IRAK4, the IC50 is below 1 nM.
In the case of `CC(C)(O)[C@H](F)CNC(=O)c1cnc(-c2ccc3cc(C#N)cnn23)cc1N[C@H]1CC[C@H](C2CCOCC2)CC1` [Compound 67, 6-(3-cyanopyrrolo[1,2-b]pyridazin-7-yl)-N-((R)-2-fluoro-3-hydroxy-3-methylbutyl)-4-(((1r,4R)-4-(tetrahydro-2H-pyran-4-yl)cyclohexyl)amino)nicotinamide], in the assay with TNFα, the EC50 came to 41 nM. This compound also registered a half-inhibitory concentration (IC50) at IRAK4 of 1 nM.
As for `CC(C)(O)[C@H](F)CNC(=O)c1cnc(-c2ccc3cc(C#N)cnn23)cc1N[C@H]1CC[C@H](n2cnnc2C(F)F)CC1` [Compound 37, 6-(3-cyanopyrrolo[1,2-b]pyridazin-7-yl)-4-(((1r,4R)-4-(3-(difluoromethyl)-4H-1,2,4-triazol-4-yl)cyclohexyl)amino)-N-((R)-2-fluoro-3-hydroxy-3-methylbutyl)nicotinamide], the half-maximal effective concentration (EC50) in the assay on TNFα was found to be 40 nM. The compound also came in with an IC50 against IRAK4 of 1 nM.
For the compound `Cn1cc([C@H]2CC[C@H](Nc3cc(-c4ccc5cc(C#N)cnn45)ncc3C(=O)NC[C@@H](F)C(C)(C)O)CC2)nn1` [Compound 19, 6-(3-cyanopyrrolo[1,2-b]pyridazin-7-yl)-N-((R)-2-fluoro-3-hydroxy-3-methylbutyl)-4-(((1r,4R)-4-(1-methyl-1H-1,2,3-triazol-4-yl)cyclohexyl)amino)nicotinamide], the concentration for a half-maximal effect (EC50) with TNFα was found to be 26 nM. Besides, the IC50 against IRAK4 was below 1 nM.
Turning to `CC(C)(O)[C@H](F)CNC(=O)c1cnc(-c2ccc3cc(C#N)cnn23)cc1N[C@H]1CC[C@H](n2cc(CC#N)cn2)CC1` [Compound 27, 4-(((1r,4R)-4-(4-(cyanomethyl)-1H-pyrazol-1-yl)cyclohexyl)amino)-6-(3-cyanopyrrolo[1,2-b]pyridazin-7-yl)-N-((R)-2-fluoro-3-hydroxy-3-methylbutyl)nicotinamide], the EC50 in the assay with TNFα turned out to be 58 nM. The concentration for half-maximal inhibition (IC50) against IRAK4 is below 1 nM.
Consider `CC(C)(O)[C@H](F)CNC(=O)c1cnc(-c2ccc3cc(C#N)cnn23)cc1N[C@H]1CC[C@H](c2cnn(C(F)(F)F)c2)CC1` [Compound 4, 6-(3-cyanopyrrolo[1,2-b]pyridazin-7-yl)-N-((R)-2-fluoro-3-hydroxy-3-methylbutyl)-4-(((1r,4R)-4-(1-(trifluoromethyl)-1H-pyrazol-4-yl)cyclohexyl)amino)nicotinamide], for which, in the assay with TNFα, the EC50 came out at 37 nM. The compound further displayed an IC50 on IRAK4 of 3 nM.
Regarding `Cn1nnc([C@H]2CC[C@H](Nc3cc(-c4ccc5cc(C#N)cnn45)ncc3C(=O)NC[C@@H](F)C(C)(C)O)CC2)n1` [Compound 15, 6-(3-cyanopyrrolo[1,2-b]pyridazin-7-yl)-N-((R)-2-fluoro-3-hydroxy-3-methylbutyl)-4-(((1r,4R)-4-(2-methyl-2H-tetrazol-5-yl)cyclohexyl)amino)nicotinamide], in the assay on TNFα, the EC50 is 35 nM. The compound further gave a concentration for half-maximal inhibition (IC50) against IRAK4 below 1 nM.
Regarding `CC(C)(O)[C@H](F)CNC(=O)c1cnc(-c2ccc3cc(C#N)cnn23)cc1NC1CCC(c2ncn(C(F)F)n2)CC1` (stereo partly drawn) [Compound 21, (R)-6-(3-cyanopyrrolo[1,2-b]pyridazin-7-yl)-4-((4-(1-(difluoromethyl)-1H-1,2,4-triazol-3-yl)cyclohexyl)amino)-N-(2-fluoro-3-hydroxy-3-methylbutyl)nicotinamide], the EC50 with TNFα stood at 60 nM. This compound displayed an IC50 at IRAK4 of 2 nM.
Taken in the same sequence, the figures for `CC(C)(O)[C@H](F)CNC(=O)c1cnc(-c2ccc3cc(C#N)cnn23)cc1N[C@@H]1CC[C@@H](c2nnc(C(F)F)o2)OC1` [Compound 63, 6-(3-cyanopyrrolo[1,2-b]pyridazin-7-yl)-4-(((3R,6S)-6-(5-(difluoromethyl)-1,3,4-oxadiazol-2-yl)tetrahydro-2H-pyran-3-yl)amino)-N-((R)-2-fluoro-3-hydroxy-3-methylbutyl)nicotinamide] were 39 nM and below 1 nM.
Consider `CC(C)(O)[C@H](F)CNC(=O)c1cnc(-c2ccc3cc(C#N)cnn23)cc1NC12CCC(N3CCOCC3=O)(CC1)CC2` [Compound 69, (R)-6-(3-cyanopyrrolo[1,2-b]pyridazin-7-yl)-N-(2-fluoro-3-hydroxy-3-methylbutyl)-4-((4-(3-oxomorpholino)bicyclo[2.2.2]octan-1-yl)amino)nicotinamide], for which the concentration giving a half-maximal response (EC50) in the assay on TNFα amounted to 15 nM. The compound also had a concentration for half-maximal inhibition (IC50) at IRAK4 below 1 nM.
As for `CC(C)(O)[C@H](F)CNC(=O)c1cnc(-c2ccc3cc(C#N)cnn23)cc1N[C@H]1CC[C@H](c2cnn(CC3CC3)c2)CC1` [Compound 13, 6-(3-cyanopyrrolo[1,2-b]pyridazin-7-yl)-4-(((1r,4R)-4-(1-(cyclopropylmethyl)-1H-pyrazol-4-yl)cyclohexyl)amino)-N-((R)-2-fluoro-3-hydroxy-3-methylbutyl)nicotinamide], in the assay with TNFα, the concentration giving a half-maximal response (EC50) was 169 nM. In addition, on IRAK4, the IC50 worked out at 2 nM.
On to `CC(C)(O)[C@H](F)CNC(=O)c1cnc(-c2ccc3cc(C#N)cnn23)cc1N[C@H]1CC[C@H](n2cc(F)cn2)CC1` [Compound 25, 6-(3-cyanopyrrolo[1,2-b]pyridazin-7-yl)-4-(((1r,4R)-4-(4-fluoro-1H-pyrazol-1-yl)cyclohexyl)amino)-N-((R)-2-fluoro-3-hydroxy-3-methylbutyl)nicotinamide], for which the EC50 in the assay on TNFα is 29 nM. At IRAK4, it took 2 nM to reach half-maximal inhibition (IC50).
In the case of `CC(C)(O)[C@H](F)CNC(=O)c1cnc(-c2ccc3cc(C#N)cnn23)cc1N[C@H]1CC[C@H](n2cnnn2)CC1` [Compound 38, 4-(((1r,4R)-4-(1H-tetrazol-1-yl)cyclohexyl)amino)-6-(3-cyanopyrrolo[1,2-b]pyridazin-7-yl)-N-((R)-2-fluoro-3-hydroxy-3-methylbutyl)nicotinamide], the EC50 in the assay with TNFα is 24 nM. The compound also had a concentration for half-maximal inhibition (IC50) against IRAK4 below 1 nM.
Taken in the same sequence, the figures for `CC(C)(O)[C@H](F)CNC(=O)c1cnc(-c2ccc3cc(C#N)cnn23)cc1NC12CCC(N3CCC(F)(F)CC3)(CC1)CC2` [Compound 68, (R)-6-(3-cyanopyrrolo[1,2-b]pyridazin-7-yl)-4-((4-(4,4-difluoropiperidin-1-yl)bicyclo[2.2.2]octan-1-yl)amino)-N-(2-fluoro-3-hydroxy-3-methylbutyl)nicotinamide] were 38 nM and below 1 nM.

The values are drawn from patent US11572362B2, “Pyrrolo[1,2-b]pyridazine derivatives” (Gilead Sciences, Inc., priority 2018, dated 2023).
